Tested on: electron transport system of SMP (sub-mitochondrial particle)
Assay: pH change caused by SMP after contact with the sample and addition of NADH as external electron donor
Assay type: biochemical
Conditions: for pH change rate: control about 0.17 per minute
Protocol: First of all, a large quantity of SMPs were prepared by sonicating mitochondria.
Thereafter, the test tubes 1 to 3 were prepared, wherein 10 ml of a 2 mM KCl solution (control solution) was added to the test tube 1, 10 ml of 10% ethanol dissolved in the control solution was added to the test tube 2, and 10 ml of 20% ethanol dissolved in the same was added to the test tube 3. SMPs prepared above were added to each test tube at a final concentration of 1.4 mg/ml.
Next, 0.1 mM of NADH that acts as an external electron donor was added to each test tube at the same time, and the pH change in each test tube was measured for 5 minutes by using a pH meter.
In order to examine whether the method of the present invention is sensitive to only a toxic substance, the experiment was carried out according to the same method as described in Example 1 except that the sample prepared by dissolving 20% sorbitol in a 2 mM KCl solution was used.

Structure (SMILES) | pH change rate (10% ethanol (FIG. 5)) | pH increase for 5 minutes (10% ethanol in 2 mM KCl, SMP 1.4 mg/ml, 0.1 mM NADH, pH meter, control increased about 0.9) | pH change for 5 minutes (20% ethanol in 2 mM KCl, SMP 1.4 mg/ml, 0.1 mM NADH, pH meter) | pH change rate (20% ethanol, the relatively strong toxic substance (FIG. 5)) | pH change compared with control (20% sorbitol in 2 mM KCl, SMP 1.4 mg/ml, 0.1 mM NADH, 5 minutes)
CCO [ethanol] | lower than 0.1 per minute | about 0.4 | almost no pH change | lower than 0.02 per minute | –
OC[C@@H](O)[C@@H](O)[C@H](O)[C@@H](O)CO [sorbitol] | – | – | – | – | almost identical to that of a control

From patent US20070231919A1, “Method for detecting the effect of a toxic substance using sub-mitochondrial particle” (SAMSUNG ELECTRONICS CO., LTD., priority 2005, published 2007)
